Source: PubChem BioAssay (NCI)
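Cultured in 96-well plates, cells were exposed to test compound for 48 hours across five concentrations. TGI: total growth inhibition.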

Experiments:
Assay in all cases: NCI anticancer screen, dose series, 48 h
HS 578T breast = system: HS 578T breast
HCT-116 colon = system: HCT-116 colon
M14 melanoma = system: M14 melanoma
EKVX NSCLC = system: EKVX NSCLC
BT-549 breast = system: BT-549 breast
HCT-15 colon = system: HCT-15 colon
MOLT-4 leukemia = system: MOLT-4 leukemia
NCI-H460 lung = system: NCI-H460 lung
HOP-62 NSCLC = system: HOP-62 NSCLC
SK-OV-3 ovarian = system: SK-OV-3 ovarian
SW-620 colon = system: SW-620 colon
MDA-MB-231 breast = system: MDA-MB-231 breast
U251 CNS = system: U251 CNS
COLO 205 colon = system: COLO 205 colon
SK-MEL-5 melanoma = system: SK-MEL-5 melanoma
UO-31 renal = system: UO-31 renal
NCI/ADR-RES ovarian = system: NCI/ADR-RES ovarian
SF-268 CNS = system: SF-268 CNS
CCRF-CEM leukemia = system: CCRF-CEM leukemia
NCI-H226 lung = system: NCI-H226 lung
NCI-H23 lung = system: NCI-H23 lung
HCC-2998 colon = system: HCC-2998 colon
OVCAR-8 ovarian = system: OVCAR-8 ovarian
UACC-62 melanoma = system: UACC-62 melanoma
TK-10 renal = system: TK-10 renal
NCI-H522 lung = system: NCI-H522 lung
ACHN renal = system: ACHN renal
RXF 393 renal = system: RXF 393 renal
SK-MEL-28 melanoma = system: SK-MEL-28 melanoma
OVCAR-5 ovarian = system: OVCAR-5 ovarian
786-0 renal = system: 786-0 renal
SNB-19 CNS = system: SNB-19 CNS
UACC-257 melanoma = system: UACC-257 melanoma
MDA-N = system: MDA-N
SF-539 CNS = system: SF-539 CNS
RPMI-8226 leukemia = system: RPMI-8226 leukemia
A498 renal = system: A498 renal
PC-3 prostate = system: PC-3 prostate
OVCAR-4 ovarian = system: OVCAR-4 ovarian
MALME-3M melanoma = system: MALME-3M melanoma
DU-145 prostate = system: DU-145 prostate
T-47D breast = system: T-47D breast
CAKI-1 renal = system: CAKI-1 renal
HL-60(TB) leukemia = system: HL-60(TB) leukemia
SK-MEL-2 melanoma = system: SK-MEL-2 melanoma
KM12 colon = system: KM12 colon
HOP-92 NSCLC = system: HOP-92 NSCLC
K-562 leukemia = system: K-562 leukemia
SNB-75 CNS = system: SNB-75 CNS
SF-295 CNS = system: SF-295 CNS
MCF7 breast = system: MCF7 breast
LOX IMVI melanoma = system: LOX IMVI melanoma
SN12C renal = system: SN12C renal
OVCAR-3 ovarian = system: OVCAR-3 ovarian
IGROV1 ovarian = system: IGROV1 ovarian
HT29 colon = system: HT29 colon
A549 NSCLC = system: A549 NSCLC
MDA-MB-435 = system: MDA-MB-435
SR leukemia = system: SR leukemia

## Cc1nc2ccccc2n1Cc1ccc(NC(=S)NC2CCCCC2)cc1
HS 578T breast
  TGI: > 100 µM
HCT-116 colon
  TGI: > 100 µM
M14 melanoma
  TGI: > 100 µM
EKVX NSCLC
  TGI: > 92.9 µM
BT-549 breast
  TGI: > 100 µM
HCT-15 colon
  TGI: > 100 µM
MOLT-4 leukemia
  TGI: > 100 µM
NCI-H460 lung
  TGI: > 100 µM
HOP-62 NSCLC
  TGI: > 100 µM
SK-OV-3 ovarian
  TGI: > 100 µM
SW-620 colon
  TGI: > 100 µM
MDA-MB-231 breast
  TGI: > 100 µM
U251 CNS
  TGI: > 100 µM
COLO 205 colon
  TGI: > 100 µM
SK-MEL-5 melanoma
  TGI: > 51.4 µM
UO-31 renal
  TGI: > 100 µM
NCI/ADR-RES ovarian
  TGI: > 100 µM
SF-268 CNS
  TGI: > 100 µM
CCRF-CEM leukemia
  TGI: > 100 µM
NCI-H226 lung
  TGI: > 100 µM
NCI-H23 lung
  TGI: > 100 µM
HCC-2998 colon
  TGI: > 100 µM
OVCAR-8 ovarian
  TGI: > 100 µM
UACC-62 melanoma
  TGI: > 89.7 µM
TK-10 renal
  TGI: > 100 µM
NCI-H522 lung
  TGI: > 100 µM
ACHN renal
  TGI: 44.4 µM
RXF 393 renal
  TGI: > 100 µM
SK-MEL-28 melanoma
  TGI: > 100 µM
OVCAR-5 ovarian
  TGI: > 100 µM
786-0 renal
  TGI: > 100 µM
SNB-19 CNS
  TGI: > 100 µM
UACC-257 melanoma
  TGI: > 95.1 µM
MDA-N
  TGI: > 100 µM
SF-539 CNS
  TGI: > 100 µM
RPMI-8226 leukemia
  TGI: > 66.4 µM
A498 renal
  TGI: > 100 µM
PC-3 prostate
  TGI: > 100 µM
OVCAR-4 ovarian
  TGI: > 100 µM
MALME-3M melanoma
  TGI: > 100 µM
DU-145 prostate
  TGI: > 100 µM
T-47D breast
  TGI: > 82.3 µM
CAKI-1 renal
  TGI: > 100 µM
HL-60(TB) leukemia
  TGI: > 100 µM
SK-MEL-2 melanoma
  TGI: > 100 µM
KM12 colon
  TGI: > 100 µM
HOP-92 NSCLC
  TGI: > 100 µM
K-562 leukemia
  TGI: > 100 µM
SNB-75 CNS
  TGI: > 84.7 µM
SF-295 CNS
  TGI: > 88.3 µM
MCF7 breast
  TGI: 72.3 µM
LOX IMVI melanoma
  TGI: > 100 µM
SN12C renal
  TGI: > 100 µM
OVCAR-3 ovarian
  TGI: > 70.3 µM
IGROV1 ovarian
  TGI: > 100 µM
HT29 colon
  TGI: > 100 µM
A549 NSCLC
  TGI: > 100 µM
MDA-MB-435
  TGI: > 100 µM

## CN(C)CCNc1nc2c(c(=O)n(C)c(=O)n2C)n1C
HS 578T breast
  TGI: > 100 µM
HCT-116 colon
  TGI: > 100 µM
M14 melanoma
  TGI: > 100 µM
EKVX NSCLC
  TGI: > 100 µM
BT-549 breast
  TGI: > 100 µM
HCT-15 colon
  TGI: > 100 µM
MOLT-4 leukemia
  TGI: > 100 µM
NCI-H460 lung
  TGI: > 100 µM
HOP-62 NSCLC
  TGI: > 100 µM
SK-OV-3 ovarian
  TGI: > 100 µM
SW-620 colon
  TGI: > 100 µM
MDA-MB-231 breast
  TGI: > 100 µM
U251 CNS
  TGI: > 100 µM
COLO 205 colon
  TGI: > 100 µM
SK-MEL-5 melanoma
  TGI: > 100 µM
UO-31 renal
  TGI: > 100 µM
NCI/ADR-RES ovarian
  TGI: > 100 µM
SF-268 CNS
  TGI: > 100 µM
CCRF-CEM leukemia
  TGI: > 100 µM
NCI-H226 lung
  TGI: > 100 µM
SR leukemia
  TGI: > 100 µM
NCI-H23 lung
  TGI: > 100 µM
OVCAR-8 ovarian
  TGI: > 100 µM
UACC-62 melanoma
  TGI: > 100 µM
TK-10 renal
  TGI: > 100 µM
NCI-H522 lung
  TGI: > 100 µM
ACHN renal
  TGI: > 100 µM
RXF 393 renal
  TGI: > 100 µM
SK-MEL-28 melanoma
  TGI: > 100 µM
OVCAR-5 ovarian
  TGI: > 100 µM
786-0 renal
  TGI: > 100 µM
SNB-19 CNS
  TGI: > 100 µM
UACC-257 melanoma
  TGI: > 100 µM
MDA-N
  TGI: > 100 µM
SF-539 CNS
  TGI: > 100 µM
RPMI-8226 leukemia
  TGI: > 100 µM
A498 renal
  TGI: > 100 µM
OVCAR-4 ovarian
  TGI: > 100 µM
MALME-3M melanoma
  TGI: > 100 µM
DU-145 prostate
  TGI: > 100 µM
T-47D breast
  TGI: > 100 µM
CAKI-1 renal
  TGI: > 100 µM
HL-60(TB) leukemia
  TGI: > 100 µM
KM12 colon
  TGI: > 100 µM
HOP-92 NSCLC
  TGI: > 100 µM
K-562 leukemia
  TGI: > 100 µM
SF-295 CNS
  TGI: > 100 µM
MCF7 breast
  TGI: > 100 µM
LOX IMVI melanoma
  TGI: > 100 µM
SN12C renal
  TGI: > 100 µM
OVCAR-3 ovarian
  TGI: > 100 µM
IGROV1 ovarian
  TGI: > 100 µM
HT29 colon
  TGI: > 100 µM
A549 NSCLC
  TGI: > 100 µM
MDA-MB-435
  TGI: > 100 µM
